Molecules are shown by their SMILES. pIC50: −log10 of the molar value.

As a reminder, the pIC50 is the negative decadic logarithm of the IC50, by convention in mol/L.

This test can be described thus: Inhibitory activity against yeast aldehyde dehydrogenase (AIDH).
In turn, `CC(=O)ON(C(C)=O)S(C)(=O)=O` [N-Acetoxy-N-acetyl-methanesulfonamide] had a pIC50 of 3.00.

`CC(=O)ON(c1ccccc1)S(=O)(=O)c1ccccc1` [N-Acetoxy-N-phenyl-benzenesulfonamide] showed a pIC50 of 4.44. In the case of `CON(c1ccccc1)S(=O)(=O)c1ccccc1` [N-Methoxy-N-phenyl-benzenesulfonamide] it was < 3.00; in that of `CCOC(=O)ON(c1ccccc1)S(=O)(=O)c1ccccc1` [N-[(ethoxycarbonyl)oxy]-N-phenylbenzenesulfonamide], 4.19. In the case of `COC(=O)ON(c1ccccc1)S(=O)(=O)c1ccccc1` [N-[(methoxycarbonyl)oxy]-N-phenylbenzenesulfonamide] it was 4.42; in that of `O=Nc1ccccc1` [NOB], 5.60. In the case of `CCOC(=O)ON(C(=O)OCC)S(C)(=O)=O` [ethyl (ethoxycarbonyl)oxy(methylsulfonyl)carbamate] it was 4.45. Regarding `COC(=O)ON(C(=O)OC)S(C)(=O)=O` [methyl (methoxycarbonyl)oxy(methylsulfonyl)carbamate], the pIC50 is 4.68.

Source of the values: BindingDB's records for doi:10.1021/jm980200+ (St. Cloud State University, 1998).
